This is an account of results in patent US20250230193A1, “CYCLIC COMPOUND HAVING SELECTIVE KRAS INHIBITORY EFFECT ON HRAS AND NRAS” (CHUGAI SEIYAKU KABUSHIKI KAISHA, priority 2022, published 2025).

The structures appear in SMILES notation.

Assay [1] has as its target GDP-bound NRAS wild-type protein (Homo sapiens, UniProt P01111). Description: Binding to NRAS by surface plasmon resonance (SPR), Single Cycle Kinetics. Particulars: KD ratio NRAS/KRAS, SPR, GDP-bound wild-type proteins.
Assay [2] concerns the target GDP-bound HRAS wild-type protein (Homo sapiens, UniProt P01112). The experiment in a line: Binding to HRAS by surface plasmon resonance (SPR), Single Cycle Kinetics. Particulars: KD ratio HRAS/KRAS, SPR, GDP-bound wild-type proteins.

Sequence of GDP-bound HRAS wild-type protein (P01112 whole entry): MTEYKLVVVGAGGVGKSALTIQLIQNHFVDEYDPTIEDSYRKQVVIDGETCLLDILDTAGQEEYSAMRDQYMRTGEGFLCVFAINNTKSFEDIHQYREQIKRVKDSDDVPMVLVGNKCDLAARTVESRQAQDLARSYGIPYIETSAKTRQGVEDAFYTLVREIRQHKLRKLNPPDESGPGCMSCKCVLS
Sequence of GDP-bound NRAS wild-type protein (P01111 whole entry): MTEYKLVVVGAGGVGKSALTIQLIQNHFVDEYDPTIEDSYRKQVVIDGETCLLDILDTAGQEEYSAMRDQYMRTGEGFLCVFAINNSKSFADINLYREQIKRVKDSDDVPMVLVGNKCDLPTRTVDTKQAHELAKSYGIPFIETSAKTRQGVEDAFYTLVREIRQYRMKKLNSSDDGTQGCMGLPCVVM

As for `CCC[C@H]1C(=O)N[C@@H]([C@@H](C)CC)C(=O)N(C2CC2)CC(=O)N(C)[C@H]2C/C=C\CCN(C2=O)[C@@H](Cc2ccc(C)cc2)C(=O)N(C)CC(=O)N[C@@H](CCc2ccc(C(F)(F)F)c(OC)c2)C(=O)N2C[C@H](OCC)C[C@H]2C(=O)N(C)C2(CCC2)C(=O)N(C)[C@@H](C2CCCC2)C(=O)N(C)[C@H](C(=O)N2CCCC2)CC(=O)N1C` [PP3098, (2S,8S,12R,14S,20S,23S,27S,30S,36S,38Z)-20-cyclopentyl-32-cyclopropyl-12-ethoxy-8-[2-[3-methoxy-4-(trifluoromethyl)phenyl]ethyl]-4,16,19,22,26,35-hexamethyl-30-[(1S)-1-methylpropyl]-27-propyl-2-(p-tolylmethyl)-23-(pyrrolidine-1-carbonyl)spiro[1,4,7,10,16,19,22,26,29,32,35-undecazatricyclo[34.5.1.0^10,14]dotetracont-38-ene-17,1′-cyclobutane]-3,6,9,15,18,21,25,28,31,34,42-undecone], in assay [1], the “NRAS/KRAS (ratio of KD value with respect to GDP-bound NRAS wild-type protein to KD value with respect to KRAS)” value was “A (a compound having 10 or more and less than 20 is denoted as A)”. Also, the “HRAS/KRAS (ratio of KD value with respect to GDP-bound HRAS wild-type protein to KD value with respect to KRAS)” value in assay [2] is “A (a compound having 10 or more and less than 20 is denoted as A)”.

For `CCC[C@H]1C(=O)N[C@@H]([C@@H](C)CC)C(=O)N2CCC[C@H]2C(=O)N(C)[C@H]2C/C=C\CCN(C2=O)[C@@H](Cc2ccc(C(F)(F)F)cc2)C(=O)N(C)CC(=O)N[C@@H](CCc2ccc(C(F)(F)F)c(OC)c2)C(=O)N2C[C@H](OCC)C[C@H]2C(=O)N(C)C2(CCC2)C(=O)N(C)[C@@H](C2CCCC2)C(=O)N(C)[C@H](C(=O)N2CCCCC2)CC(=O)N1C` [PP3099], in assay [1], the “NRAS/KRAS (ratio of KD value with respect to GDP-bound NRAS wild-type protein to KD value with respect to KRAS)” value is “A (a compound having 10 or more and less than 20 is denoted as A)”. The “HRAS/KRAS (ratio of KD value with respect to GDP-bound HRAS wild-type protein to KD value with respect to KRAS)” value in assay [2] is “A (a compound having 10 or more and less than 20 is denoted as A)”.

Regarding `CCC[C@H]1C(=O)N[C@@H]([C@@H](C)CC)C(=O)N2CCC[C@H]2C(=O)N(C)[C@H]2C/C=C\CCN(C2=O)[C@@H](Cc2ccc(C)cc2)C(=O)N(C)CC(=O)N[C@@H](CCc2ccc(C(F)(F)F)c(OC)c2)C(=O)N2C[C@H](OCC)C[C@H]2C(=O)N(C)C2(CCC2)C(=O)N(C)[C@@H](C2CCCC2)C(=O)N(C)[C@H](C(=O)N2CCCCC2)CC(=O)N1C` [PP3100, (1S,4S,10S,13S,17S,20S,26S,28R,32S,38S,42Z)-20-cyclopentyl-28-ethoxy-32-[2-[3-methoxy-4-(trifluoromethyl)phenyl]ethyl]-2,14,18,21,24,36-hexamethyl-10-[(1S)-1-methylpropyl]-17-(piperidine-1-carbonyl)-13-propyl-38-(p-tolylmethyl)spiro[2,8,11,14,18,21,24,30,33,36,39-undecazatetracyclo[37.5.1.0^4,8.0^26,30]pentatetracont-42-ene-23,1′-cyclobutane]-3,9,12,15,19,22,25,31,34,37,45-undecone], in assay [1], the “NRAS/KRAS (ratio of KD value with respect to GDP-bound NRAS wild-type protein to KD value with respect to KRAS)” value is “A (a compound having 10 or more and less than 20 is denoted as A)”. Besides, the “HRAS/KRAS (ratio of KD value with respect to GDP-bound HRAS wild-type protein to KD value with respect to KRAS)” value in assay [2] was “B (a compound having 3 or more and less than 10 is denoted as B)”.

As for `CCC[C@H]1C(=O)N[C@@H]([C@@H](C)CC)C(=O)N2CCC[C@H]2C(=O)N(C)[C@H]2C/C=C\CCN(C2=O)[C@@H](Cc2ccc(C(F)(F)F)cc2)C(=O)N(C)CC(=O)N[C@@H](CCc2ccc(C(F)(F)F)c(OC)c2)C(=O)N2C[C@H](OCC)C[C@H]2C(=O)N(C)C2(CCC2)C(=O)N(C)[C@@H](C2CCCC2)C(=O)N(C)[C@H](C(=O)N2CCCC2)CC(=O)N1C` [PP3101], the “NRAS/KRAS (ratio of KD value with respect to GDP-bound NRAS wild-type protein to KD value with respect to KRAS)” value in assay [1] was “A (a compound having 10 or more and less than 20 is denoted as A)”. The “HRAS/KRAS (ratio of KD value with respect to GDP-bound HRAS wild-type protein to KD value with respect to KRAS)” value in assay [2] was “A (a compound having 10 or more and less than 20 is denoted as A)”.

Consider `CCC[C@H]1C(=O)N[C@@H]([C@@H](C)CC)C(=O)N2CCC[C@H]2C(=O)N(C)[C@H]2C/C=C\CCN(C2=O)[C@@H](Cc2ccc(C)cc2)C(=O)N(C)CC(=O)N[C@@H](CCc2ccc(C(F)(F)F)c(OC)c2)C(=O)N2C[C@H](OCC)C[C@H]2C(=O)N(C)C2(CCC2)C(=O)N(C)[C@@H](C2CCCC2)C(=O)N(C)[C@H](C(=O)N2CCCC2)CC(=O)N1C` [PP3102, (1S,4S,10S,13S,17S,20S,26S,28R,32S,38S,42Z)-20-cyclopentyl-28-ethoxy-32-[2-[3-methoxy-4-(trifluoromethyl)phenyl]ethyl]-2,14,18,21,24,36-hexamethyl-10-[(1S)-1-methylpropyl]-13-propyl-38-(p-tolylmethyl)-17-(pyrrolidine-1-carbonyl)spiro[2,8,11,14,18,21,24,30,33,36,39-undecazatetracyclo[37.5.1.0^4,8.0^26,30]pentatetracont-42-ene-23,1′-cyclobutane]-3,9,12,15,19,22,25,31,34,37,45-undecone], for which the “NRAS/KRAS (ratio of KD value with respect to GDP-bound NRAS wild-type protein to KD value with respect to KRAS)” value in assay [1] is “A (a compound having 10 or more and less than 20 is denoted as A)”. For the same compound, in assay [2], the “HRAS/KRAS (ratio of KD value with respect to GDP-bound HRAS wild-type protein to KD value with respect to KRAS)” value was “A (a compound having 10 or more and less than 20 is denoted as A)”.

`CCC[C@H]1C(=O)N[C@@H]([C@@H](C)CC)C(=O)N(C)CC(=O)N(C)[C@H]2C/C=C\CCN(C2=O)[C@@H](Cc2ccc(C)cc2)C(=O)N(C)CC(=O)N[C@@H](CCc2ccc(C(F)(F)F)c(OC)c2)C(=O)N2C[C@H](OCC)C[C@H]2C(=O)N(C)C2(CCC2)C(=O)N(C)[C@@H](C2CCCC2)C(=O)N(C)[C@H](C(=O)N2CCCCC2)CC(=O)N1C` [PP3104, (2S,8S,12R,14S,20S,23S,27S,30S,36S,38Z)-20-cyclopentyl-12-ethoxy-8-[2-[3-methoxy-4-(trifluoromethyl)phenyl]ethyl]-4,16,19,22,26,32,35-heptamethyl-30-[(1S)-1-methylpropyl]-23-(piperidine-1-carbonyl)-27-propyl-2-(p-tolylmethyl)spiro[1,4,7,10,16,19,22,26,29,32,35-undecazatricyclo[34.5.1.0^10,14]dotetracont-38-ene-17,1′-cyclobutane]-3,6,9,15,18,21,25,28,31,34,42-undecone]: the “NRAS/KRAS (ratio of KD value with respect to GDP-bound NRAS wild-type protein to KD value with respect to KRAS)” value in assay [1] was “A (a compound having 10 or more and less than 20 is denoted as A)”. Besides, the “HRAS/KRAS (ratio of KD value with respect to GDP-bound HRAS wild-type protein to KD value with respect to KRAS)” value in assay [2] was “A (a compound having 10 or more and less than 20 is denoted as A)”.
